Measurements as given in US20200299612A1, “HIGH PERFORMING, HIGH IMPACT BLOOM ACCORD” (International Flavors & Fragrances Inc., priority 2016, published 2020).

Key:
Test in all cases: Antibacterial activity
e. coli = system: e. coli
Source text: (§1) The fragrance accords can contain antibacterial ingredients described above. See U.S. Pat. No. 6,495,512 for a list of suitable antibacterial ingredients.

e. hirae = system: e. hirae
Source text: as §1

s. aureos = system: s. aureos
Source text: as §1

Measured: antibacterial activity

COc1ccc(C)cc1 [1-methoxy-4-methylbenzene]
high antibacterial activity: all assays above

C=CC(C)(O)CCC=C(C)C (stereo not drawn) [3,7-dimethylocta-1,6-dien-3-ol]
high antibacterial activity: all assays above
